Source: ChEMBL document CHEMBL1126374, “Synthesis of -(S)-acylamino-N-(hydroxydioxocyclobutenyl)--lactams as potential antibiotics” (Bioorg Med Chem Lett, 1992)
Calls of active or inactive are those of the source. The calls are words filed in the database; no cut-off is given here.

Tests used:
[1] = tested on: Streptococcus pneumoniae; experiment: Tested for antibacterial activity against Streptococcus pneumoniae; IA - No useful antibacterial activity; assay type: functional, organism-based
[2] = tested on: Staphylococcus aureus; experiment: Tested for antibacterial activity against Staphylococcus aureus; IA - No useful antibacterial activity; assay type: functional, organism-based
[3] = tested on: Escherichia coli; experiment: Tested for antibacterial activity against Escherichia coli; IA - No useful antibacterial activity; assay type: functional, organism-based
[4] = Half life in pH 7 buffer solution was determined; assay type: ADME

SMILES | Activity [1] | Activity [2] | Activity [3] | half-life [4] [h]
CO/N=C(/C(=O)N[C@H]1CN(c2c(O)c(=O)c2=O)C1=O)c1csc(N)n1 | inactive | inactive | inactive | 
O=C(COc1ccccc1)N[C@H]1CN(c2c([O-])c(=O)c2=O)C1=O.[K+] | inactive | inactive | inactive | 72
C[C@H]1[C@H](NC(=O)COc2ccccc2)C(=O)N1c1c([O-])c(=O)c1=O.[K+] | inactive | inactive | inactive | 168
